Laboratory results reported in patent US12473303B2, “4-[[(7-aminopyrazolo[1,5-a]pyrimidin-5-yl)amino methyl]piperidin-3-ol compounds and their therapeutic use” (CARRICK THERAPEUTICS LIMITED, priority 2019, dated 2025).
Read-outs that look alike come from different tables or passages of the source.

Columns and labels:
Human CDK7/CycH/MAT1 = Human CDK7/CycH/MAT1 (Homo sapiens (Human), UniProt P50613); test: Radiometric protein kinase assay (33PanQinase Activity Assay), CDK7; assay type: biochemical; details: Table 1; ATP 3 μM
Chain of Human CDK7/CycH/MAT1 (P50613 whole entry): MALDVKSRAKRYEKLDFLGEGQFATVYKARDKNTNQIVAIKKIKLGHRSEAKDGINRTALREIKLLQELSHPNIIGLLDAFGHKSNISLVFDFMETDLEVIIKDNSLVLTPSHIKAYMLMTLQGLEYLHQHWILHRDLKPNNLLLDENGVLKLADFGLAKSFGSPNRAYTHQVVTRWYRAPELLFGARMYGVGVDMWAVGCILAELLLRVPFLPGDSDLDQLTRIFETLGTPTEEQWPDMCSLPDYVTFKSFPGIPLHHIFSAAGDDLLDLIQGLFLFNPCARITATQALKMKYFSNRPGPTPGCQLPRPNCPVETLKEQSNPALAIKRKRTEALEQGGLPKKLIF
Chain of Human CDK7/CycH/MAT1 (P51946 whole entry partner): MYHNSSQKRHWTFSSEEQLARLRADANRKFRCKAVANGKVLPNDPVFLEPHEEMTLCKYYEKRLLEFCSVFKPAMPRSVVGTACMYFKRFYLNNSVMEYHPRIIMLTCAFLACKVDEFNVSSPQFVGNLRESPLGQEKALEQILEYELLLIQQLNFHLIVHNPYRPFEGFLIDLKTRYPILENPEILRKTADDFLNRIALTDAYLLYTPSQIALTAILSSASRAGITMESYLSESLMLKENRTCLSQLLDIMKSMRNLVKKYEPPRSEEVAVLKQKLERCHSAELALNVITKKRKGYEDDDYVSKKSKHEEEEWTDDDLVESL
Chain of Human CDK7/CycH/MAT1 (P51948 whole entry partner): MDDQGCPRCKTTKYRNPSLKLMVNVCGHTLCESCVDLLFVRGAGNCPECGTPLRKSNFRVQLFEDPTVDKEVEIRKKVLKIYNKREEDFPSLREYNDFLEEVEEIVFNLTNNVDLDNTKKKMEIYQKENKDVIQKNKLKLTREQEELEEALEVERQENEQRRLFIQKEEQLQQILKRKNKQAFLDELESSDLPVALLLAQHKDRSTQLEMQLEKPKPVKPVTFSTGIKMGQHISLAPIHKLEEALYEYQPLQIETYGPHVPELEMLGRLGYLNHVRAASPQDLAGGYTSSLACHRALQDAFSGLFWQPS
Protocol: (§1) A radiometric protein kinase assay (^33PanQinase® Activity Assay) was used for measuring the kinase activity of the two protein kinases (CDK12/CDK7). All kinase assays were performed in 96-well FlashPlates™ from PerkinElmer (Boston, MA, USA) in a 50 μL reaction volume.
(§2) The reaction cocktail was pipetted in four steps in the following order: • 20 μL of assay buffer (standard buffer) • 5 μL of ATP solution (in H2O) • 5 μL of test compound (in 10% DMSO) • 10 μL of substrate/10 μL of enzyme solution (premixed)
(§3) The reaction mixture was incubated at 30° C. for 60 min and then stopped by the addition of 2% (v/v) H3PO4. Plates were aspirated and washed two times with 200 μL 0.9% (w/v) NaCl. Incorporation of ^33Pi was determined with a microplate scintillation count (Microbeta, Wallac).
(§4) The fitting method used was a least-squares fit.

Cyclin K = test: Western blotting analysis of Cyclin K depletion in cell culture; assay type: cell-based; details: A673 cells; for Cyclin K Degrader Activity: Table 2, 1 μM compound, 2 hours
Protocol: Western Blotting Analysis of Cyclin K Depletion in Cell Culture A673 cells were incubated for 2 hours with of 1 μM compound in presence or in absence of 10 μM proteasome inhibitor MG132 (Sigma Aldrich) or NAE (NEDD8 activating enzyme) inhibitor […] (Cell Signalling Technologies). Cells were washed 2× with cold Phosphate Buffered Saline (PBS, Sigma Aldrich), followed by the addition of lysis buffer for 15 minutes on ice before harvesting and centrifugation.
Protein content in the cell lysate was assessed by BCA assay (Thermo Fisher). Samples were then prepared with 4× Laemmlli Buffer (Bio-Rad) and heated to 95° C. for 5 minutes. Each sample was loaded onto a Mini-PROTEAN TGX Stain Free Gel (Bio-Rad) at 50 μg protein/well. SDS-PAGE was performed and then protein was transferred onto a PVDF membrane using a Trans-Blot® Turbo™ Midi PVDF Transfer Pack (Bio-Rad. Membranes were blocked in TBS-T (Invitrogen), 5% (w/v) milk powder (Marvel) overnight at 4° C.
Membranes were incubated with anti-CCNK antibody (rabbit) primary antibody (Abcam) and anti-GAPDH antibody (rabbit) in TBS-T for 2 hours. Membranes were then washed three times with TBS-T, before incubation secondary goat anti-rabbit HRP antibody (Cell Signalling Technologies) followed by 3× washing in TBS-T. Blots were imaged using a Chemidoc imager (Bio-Rad). Cyclin K depletion was measured as the observable drop in band intensity in compound treated samples relative to proteasome-inhibitor treated samples, measured by densitometry (Image Lab).

A673 cells = test: Cellular potency in A673 cells; assay type: cell-based; details: for IC50: Homo sapiens, A673 cells
Human CDK12 wt/CycK = Human CDK12 wt/CycK (Homo sapiens (Human), UniProt Q9NYV4); test: Radiometric protein kinase assay (33PanQinase Activity Assay), CDK12; assay type: biochemical; details: for CDK7/CDK12: ratio greater than 1 indicated selectivity for CDK12
Chain of Human CDK12 wt/CycK (Q9NYV4 whole entry): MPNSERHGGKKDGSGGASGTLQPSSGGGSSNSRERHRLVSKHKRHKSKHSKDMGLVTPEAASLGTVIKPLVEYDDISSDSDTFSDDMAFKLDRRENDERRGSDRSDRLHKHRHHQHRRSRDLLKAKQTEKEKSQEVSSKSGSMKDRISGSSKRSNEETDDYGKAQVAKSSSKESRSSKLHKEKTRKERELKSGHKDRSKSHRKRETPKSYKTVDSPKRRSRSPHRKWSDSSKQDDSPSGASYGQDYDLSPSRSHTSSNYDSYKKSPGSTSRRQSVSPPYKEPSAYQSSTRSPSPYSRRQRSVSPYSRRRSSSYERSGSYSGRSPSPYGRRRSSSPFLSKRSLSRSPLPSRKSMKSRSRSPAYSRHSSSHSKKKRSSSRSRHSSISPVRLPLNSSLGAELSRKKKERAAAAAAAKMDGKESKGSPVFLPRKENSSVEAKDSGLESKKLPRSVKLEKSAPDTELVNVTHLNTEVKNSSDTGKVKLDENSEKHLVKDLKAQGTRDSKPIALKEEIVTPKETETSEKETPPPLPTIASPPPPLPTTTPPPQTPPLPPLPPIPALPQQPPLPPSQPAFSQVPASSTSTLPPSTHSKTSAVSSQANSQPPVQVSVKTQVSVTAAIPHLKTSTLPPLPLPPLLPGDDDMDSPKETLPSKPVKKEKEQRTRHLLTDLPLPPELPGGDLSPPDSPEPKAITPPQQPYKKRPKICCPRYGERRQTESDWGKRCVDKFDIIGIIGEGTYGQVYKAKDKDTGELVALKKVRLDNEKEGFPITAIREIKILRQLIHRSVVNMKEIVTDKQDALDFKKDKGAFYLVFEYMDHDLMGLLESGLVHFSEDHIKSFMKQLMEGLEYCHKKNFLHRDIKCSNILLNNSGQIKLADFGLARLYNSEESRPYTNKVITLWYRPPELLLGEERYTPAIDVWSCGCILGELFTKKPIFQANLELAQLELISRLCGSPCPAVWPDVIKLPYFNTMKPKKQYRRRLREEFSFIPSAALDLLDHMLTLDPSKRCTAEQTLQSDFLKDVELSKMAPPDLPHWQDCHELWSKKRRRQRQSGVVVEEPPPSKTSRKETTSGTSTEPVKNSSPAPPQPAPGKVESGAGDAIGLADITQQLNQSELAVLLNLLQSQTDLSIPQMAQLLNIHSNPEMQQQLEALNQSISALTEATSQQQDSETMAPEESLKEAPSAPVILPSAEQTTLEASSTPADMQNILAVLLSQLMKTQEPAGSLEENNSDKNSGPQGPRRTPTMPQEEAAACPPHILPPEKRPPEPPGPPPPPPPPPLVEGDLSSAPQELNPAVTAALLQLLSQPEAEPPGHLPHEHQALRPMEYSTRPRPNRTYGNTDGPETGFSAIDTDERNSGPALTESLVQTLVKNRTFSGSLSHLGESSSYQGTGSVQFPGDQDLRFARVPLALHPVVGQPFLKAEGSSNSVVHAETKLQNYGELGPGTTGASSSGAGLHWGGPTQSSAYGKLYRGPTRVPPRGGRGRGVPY
Chain of Human CDK12 wt/CycK (O75909 whole entry partner): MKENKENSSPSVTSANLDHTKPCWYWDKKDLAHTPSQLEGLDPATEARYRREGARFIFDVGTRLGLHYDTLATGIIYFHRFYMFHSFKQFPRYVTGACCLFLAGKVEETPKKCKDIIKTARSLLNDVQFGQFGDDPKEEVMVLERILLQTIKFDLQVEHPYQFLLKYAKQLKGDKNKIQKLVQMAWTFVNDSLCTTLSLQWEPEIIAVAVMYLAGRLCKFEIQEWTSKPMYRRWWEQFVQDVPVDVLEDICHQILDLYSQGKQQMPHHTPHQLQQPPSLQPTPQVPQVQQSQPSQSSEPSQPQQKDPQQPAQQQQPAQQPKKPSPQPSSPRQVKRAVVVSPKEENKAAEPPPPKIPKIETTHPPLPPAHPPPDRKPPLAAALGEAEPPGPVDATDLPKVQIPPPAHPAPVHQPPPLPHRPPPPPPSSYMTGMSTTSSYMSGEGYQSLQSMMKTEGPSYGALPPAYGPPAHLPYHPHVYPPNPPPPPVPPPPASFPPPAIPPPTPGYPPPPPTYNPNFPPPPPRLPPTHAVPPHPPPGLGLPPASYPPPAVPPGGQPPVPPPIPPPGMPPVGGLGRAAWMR
Protocol: as §1, §2, §3, §4

[1] = Table 3, ratio >0.9 is an indicator of Cyclin K degradation
[2] = Table 1, ATP 0.3 μM, read-out: CDK12 IC50
[3] = Table 2, CDK12 kinase activity, read-out: Biochemical Potency IC50
[4] = Table 3, CDK12 kinase activity, read-out: Biochemical Potency IC50

IC50 (Human CDK7/CycH/MAT1) [nM] | IC50 (A673 cells; A673, Table 2) [nM] | IC50 (A673 cells; A673, Table 3) [nM] | IC50 (Human CDK12 wt/CycK; [2]) [nM] | CDK7/CDK12 (Human CDK12 wt/CycK; Table 1) | IC50 (Human CDK12 wt/CycK; [3]) [nM] | IC50 (Human CDK12 wt/CycK; [4]) [nM] | Structure (SMILES) | Cyclin K Degrader Activity (Cyclin K) | Ratio of Biochemical Potency: Cellular Potency (A673 cells; Table 2) | Ratio of Biochemical Potency: Cellular Potency (A673 cells; [1]) | Cyclin K degradation (in words) (Cyclin K)
305 | 8.9 | 12 | 51.7 | 5.90 | 55 | 51 | Cc1cccn2cc(CNc3cc(NC[C@H]4CCNC[C@@H]4O)nc4c(C(C)C)cnn34)nc12 [H-APPAMP-004, (3R,4R)-4-(((3-isopropyl-7-(((8-methylimidazo[1,2-a]pyridin-2-yl)methyl)amino)pyrazolo[1,5-a]pyrimidin-5-yl)amino)methyl)piperidin-3-ol] | ++ | 6.2 | 4.2 | 
269 | 44 | 44 | 40 | 6.7 | 40 | 40 | CC(C)c1cnn2c(NCc3nc4cc(C5CC5)ccn4n3)cc(NC[C@H]3CCNC[C@@H]3O)nc12 [H-APPAMP-044, (3R,4R)-4-(((7-(((7-cyclopropyl-[1,2,4]triazolo[1,5-a]pyridin-2-yl)methyl)amino)-3-isopropylpyrazolo[1,5-a]pyrimidin-5-yl)amino)methyl)piperidin-3-ol] | + | 0.91 | 0.91 | 
 |  |  |  |  |  |  | CCc1cnn2c(NCc3ccc[n+]([O-])c3)cc(N3CCCC[C@H]3CCO)nc12 [Dinaciclib, reference compound] | − |  |  | not cyclin K degraders
496 | 110 | 110 | 18 | 27.6 | 18 | 18 | O[C@H]1CNCC[C@@H]1CNc1cc(NCc2cn3ccc(-c4ccccc4)cc3n2)n2ncc(C3CC3)c2n1 [H-APPAMP-045, (3R,4R)-4-(((3-cyclopropyl-7-(((7-phenylimidazo[1,2-a]pyridin-2-yl)methyl)amino)pyrazolo[1,5-a]pyrimidin-5-yl)amino)methyl)piperidin-3-ol] | − | 0.16 | 0.16 | 
334 | 1.5 | 1.5 | 36 | 9.3 | 36 | 36 | Cc1cccc2nc(CNc3cc(NC[C@H]4CCNC[C@@H]4O)nc4c(C5CC5)cnn34)cn12 [H-APPAMP-025, (3R,4R)-4-(((3-cyclopropyl-7-(((5-methylimidazo[1,2-a]pyridin-2-yl)methyl)amino)pyrazolo[1,5-a]pyrimidin-5-yl)amino)methyl)piperidin-3-ol] | +++ | 23 | 23 | 
102 |  | 296 | 702 | 0.1 |  | 702 | CC(C)c1cnn2c(NCc3nc4ccccn4c3C(F)(F)F)cc(NC[C@H]3CCNC[C@@H]3O)nc12 [H-APPAMP-023, (3R,4R)-4-(((3-isopropyl-7-(((3-(trifluoromethyl)imidazo[1,2-a]pyridin-2-yl)methyl)amino)pyrazolo[1,5-a]pyrimidin-5-yl)amino)methyl)piperidin-3-ol] |  |  | 2.4 | 
1530 |  | 5.4 | 48 | 31.9 |  | 48 | Cc1cn2cc(CNc3cc(NC[C@H]4CCNC[C@@H]4O)nc4c(C5CC5)cnn34)nc2cc1C(F)(F)F [H-APPAMP-040, (3R,4R)-4-(((3-cyclopropyl-7-(((6-methyl-7-(trifluoromethyl)imidazo[1,2-a]pyridin-2-yl)methyl)amino)pyrazolo[1,5-a]pyrimidin-5-yl)amino)methyl)piperidin-3-ol] |  |  | 8.9 | 
40 |  | 8.3 | 63 | 0.6 |  | 143 | Cc1c(CNc2cc(NC[C@H]3CCNC[C@@H]3O)nc3c(C(C)C)cnn23)nc2ccccn12 [H-APPAMP-017, (3R,4R)-4-(((3-isopropyl-7-(((3-methylimidazo[1,2-a]pyridin-2-yl)methyl)amino)pyrazolo[1,5-a]pyrimidin-5-yl)amino)methyl)piperidin-3-ol] |  |  | 17.2 | 
196 |  | 18.5 | 65 | 3.0 |  | 65 | Cc1cccn2cc(CNc3cc(NC[C@H]4CCNC[C@@H]4O)nc4c(C5CCC5)cnn34)nc12 [H-APPAMP-029, (3R,4R)-4-(((3-cyclobutyl-7-(((8-methylimidazo[1,2-a]pyridin-2-yl)methyl)amino)pyrazolo[1,5-a]pyrimidin-5-yl)amino)methyl)piperidin-3-ol] |  |  | 3.5 | 
919 |  | 2.2 | 24 | 38.3 |  | 24 | CCc1cnn2c(NCc3cn4c(C)cccc4n3)cc(NC[C@H]3CCNC[C@@H]3O)nc12 [H-APPAMP-031, (3R,4R)-4-(((3-ethyl-7-(((5-methylimidazo[1,2-a]pyridin-2-yl)methyl)amino)pyrazolo[1,5-a]pyrimidin-5-yl)amino)methyl)piperidin-3-ol] |  |  | 11 | 
762 |  | 4.6 | 100 | 7.6 |  | 100 | CCc1cnn2c(NCc3cn4cc(C5CC5)cc(C(F)(F)F)c4n3)cc(NC[C@H]3CCNC[C@@H]3O)nc12 [H-APPAMP-038, (3R,4R)-4-(((7-(((6-cyclopropyl-8-(trifluoromethyl)imidazo[1,2-a]pyridin-2-yl)methyl)amino)-3-ethylpyrazolo[1,5-a]pyrimidin-5-yl)amino)methyl)piperidin-3-ol] |  |  | 22 | 
3 |  | 151 | 277 | 0.01 |  | 277 | Cc1ccn2c(CNc3cc(NC[C@H]4CCNC[C@@H]4O)nc4c(C(C)C)cnn34)c(C)nc2c1 [H-APPAMP-015, (3R,4R)-4-(((7-(((2,7-dimethylimidazo[1,2-a]pyridin-3-yl)methyl)amino)-3-isopropylpyrazolo[1,5-a]pyrimidin-5-yl)amino)methyl)piperidin-3-ol] |  |  | 1.8 | 
622 |  | 10.3 | 164 | 3.8 |  | 164 | Cc1cccn2cc(CNc3cc(NC[C@H]4CCNC[C@@H]4O)nc4c(C5CC5)cnn34)nc12 [H-APPAMP-022, (3R,4R)-4-(((3-cyclopropyl-7-(((8-methylimidazo[1,2-a]pyridin-2-yl)methyl)amino)pyrazolo[1,5-a]pyrimidin-5-yl)amino)methyl)piperidin-3-ol] |  |  | 16 | 
